{
  "source": "patent US20210196714A1",
  "about": "“COMPOSITIONS AND METHODS FOR TREATING DISORDERS CHARACTERIZED WITH ABERRANT RAS/MAPK SIGNALING” (Duke University, priority 2018, published 2021)",
  "assay_type_in_all_cases": "in vivo, zebrafish",
  "key": {"[1]": {"test_system": "rap1-CRISPR embryos", "experiment": "Brain cell proliferation (pHH3 immunostaining) in rap1-mosaic mutants", "conditions": "100 nM, 2 dpf, listed as dmDf", "from_the_text": "(§1) Intellectual disability represents a major phenotype in KS, with some studies reporting almost 90% of patients to be affected (see, Wessels, M. W., et al. Clin Dysmorphol 11, 95-102 (2002)). […] Previous studies have shown that defects in proliferation in the developing zebrafish brain can be a proxy for neurodevelopmental and neurocognitive traits, especially in the context of microcephaly (see, Borck, G. et al. Genome Res 25, 609 (2015); Brooks, S. S. et al. Genetics 198, 723-33 (2014); O'Rawe, J. A. et al. Am J Hum Genet 97, 922-32 (2015); Wortmann, S. B. et al. Am J Hum Genet 96, 245-57 (2015)), a phenotype reported commonly in KS (see, Matsumoto, N. & Niikawa, N. Am J Med Genet C Semin Med Genet 117C, 57-65 (2003)).\n(§2) For convergence and extension (CE) phenotyping, embryos were scored as described (see, Leitch, C. C. et al. Nat Genet 40, 443-8 (2008)) at the 8-10 somite stage, and images were captured using an AZ100 microscope and NIS Elements software (Nikon). […] The distance between Meckel's (MK) and ceratohyal (CH) cartilages was measured on ventral bright field images with Image J (NIH). […] Fluorescence signal on embryo heads was imaged with the Nikon AZ100 microscope and DS-Qi1MC digital camera using […] Z-stacks to generate extended depth of focus images. Cell numbers were quantified using the ImageJ ICTN plugin (NIH). […]"}, "[2]": {"test_system": "kmt2d morphants", "experiment": "Brain cell proliferation (pHH3 immunostaining) in kmt2d morphants", "conditions": "100 nM, 2 dpf, listed as dmDf", "from_the_text": "as §1, §2"}, "[3]": {"test_system": "kmt2d+/−×kmt2d+/− progeny", "experiment": "Neural differentiation (sox2/huc staining) in stable kmt2d mutant", "conditions": "100 mM dmDf, 2 dpf", "from_the_text": "(§3) FIG. 12: Treatment with dmDf rescues the defects of stable kmt2d mutant. kmt2d+/− adults were in-crossed and the embryos were then collected at 1 dpf, 2 dpf and 5 dpf to assess dmDf efficacy. […] Error bars show SEM (standard error of the mean).\n(§4) Although the small molecule testing data in CRISPR F0 mosaic models are consistent with morphant phenotypes (and rescue), experiments recognized the necessity of testing the potential efficacy of dmDf in a stable genetic model that is a better genotypic proxy to human patients. […] In addition to examining proliferation of cells in the brain, experiments assessed whether neural differentiation is affected (see, Van Laarhoven, P. M. et al. Hum Mol Genet 24, 4443-53 (2015)).\nas §2"}, "[4]": {"test_system": "kmt2d+/−×kmt2d+/− progeny", "experiment": "CE defect in stable kmt2d mutant intercross progeny", "conditions": "100 mM dmDf, 1 dpf", "from_the_text": "as §3, §4, §2"}, "[5]": {"test_system": "kmt2d+/−×kmt2d+/− progeny", "experiment": "Jaw defect in stable kmt2d mutant intercross progeny", "conditions": "100 mM dmDf, 5 dpf", "from_the_text": "as §3, §4, §2"}},
  "note": "Entries after “also recorded” stand apart in the source; their conditions may differ.",
  "data": [
    {"smiles": "CC(C)c1nc(-c2cccc(NS(=O)(=O)c3c(F)cccc3F)c2F)c(-c2ccnc(N)n2)s1", "note": "[Compound 8, desmethyl-Dabrafenib]", "values": [
      {"measurement": "total number of proliferating (pHH3+) cells in brain", "setting": "[1]", "value": "can be rescued; also recorded: restored the total number of proliferating cells to wild type levels"},
      {"measurement": "total number of proliferating (pHH3+) cells in brain", "setting": "[2]", "value": "significantly increases pHH3+ proliferating cells; also recorded: restored the total number of proliferating cells to wild type levels"},
      {"measurement": "perturbed differentiation (organization of sox2+ and huc+ cells)", "setting": "[3]", "value": "appears to ameliorate; also recorded: attenuated this pathology"},
      {"measurement": "CE defect", "setting": "[4]", "value": "ameliorates significantly"},
      {"measurement": "embryos showing Class I or Class II CE defects", "setting": "[4]; p<0.001", "value": 20, "unit": "%"},
      {"measurement": "mandibular length / jaw defect", "setting": "[5]", "value": "rescues significantly; also recorded: rescue of the mandibular length"}
    ]}
  ]
}
